Source: US8759031B2, “Type I polyketide synthase extender units” (priority 2007, dated 2014)
Where two headings read alike, the source gives them in different places.

Legend:
ZmaJ [1] = biological target: T1, ZmaJ (Bacillus cereus, UniProt Q7BQ71)
Description: ATP-PPi exchange assays were performed as previously described (Thomas et al., 2002, Chem. Biol. 9: 171-184). Reactions for amino acid specificity contained 70 nM ZmaJ and 1 mM of the following amino acids: L-Ser, L-2,3-diaminopropionate, L-Thr, Gly, and L-Cys. To determine the kinetic parameters of ZmaJ activation of L-Ser, 100 μL reactions containing 70 nM ZmaJ, 3.5 mM ATP, and varying concentrations of L-Ser (0.35 to 10 mM), in triplicate, were incubated for 10 min prior to stopping the reactions.

N[C@@H](CO)C(=O)O = test: purified protein, by the assay type; details: other: 70 nM ZmaJ, 3.5 mM ATP, L-Ser 0.35 to 10 mM, 10 min, triplicate
Description: ZmaJ used in these assays was purified by an additional anion exchange chromatography step, which had no effect on seryl-ZmaH formation. […] Reactions for amino acid specificity contained 70 nM ZmaJ and 1 mM of the following amino acids: L-Ser, L-2,3-diaminopropionate, L-Thr, Gly, and L-Cys. To determine the kinetic parameters of ZmaJ activation of L-Ser, 100 μL reactions containing 70 nM ZmaJ, 3.5 mM ATP, and varying concentrations of L-Ser (0.35 to 10 mM), in triplicate, were incubated for 10 min prior to stopping the reactions. The reactions were in the linear range for enzyme concentration and less than 10% substrate-to-product conversion.

ZmaN = test: Formation of glyceryl-ZmaD (ZmaN-catalyzed modification of holo-ACP, HPLC analysis); format: biochemical, Bacillus cereus; details: 50 μM 3-PG, ATP
Description: Control reactions were run without ZmaN, ATP, or with 2 U of 3-PGPK (Sigma). A time course comparing reactions with and without 3-PGPK contained 50 μM 3-PG, and the reactions were run for 0.5, 2.0, 5.0, and 10 min.
Reactions containing glyceraldehyde-3-phosphate (150 μl final volume) contained: 12.5 μM holo-ZmaD, 75 mM Tris pH 7.5, 10 mM MgCl2, 1 mM TCEP, 100 mM NaCl, 500 μM CoA, 1 μM Sfp, 250 μM DL-glyceraldehyde-3-phosphate (Sigma), 1 U GAPDH (Sigma), and 1 μM ZmaN were run for 40 min at 22° C. Control reactions without GAPDH, DL-glyceraldehyde-3-phosphate, Sfp, or ZmaN were run, as well as control reactions in which holo-ZmaH replaced holo-ZmaD.

ZmaJ [2] = biological target: T1, ZmaJ; details: 10 μM holo-ZmaD replaced holo-ZmaH; L-serine, ATP
Description: Reaction mixtures (130 or 260 μl) contained: 10 μM holo-ZmaH, 58 mM Tris pH 7.5, 8 mM MgCl2, 0.8 mM TCEP, 385 μM CoA, 0.8 μM Sfp, 250 μM L-serine, 5 mM ATP, and 1 μM ZmaJ. The reaction mixtures were incubated at 22° C. for 1 hour. To test whether seryl-ZmaD could be formed, 10 μM holo-ZmaD replaced the 10 μM holo-ZmaH in a 130 μL reaction mixture.
In this experiment, 100-200 μl of apo- or holo-ZmaH or 130-200 μl of aminoacylated ZmaH reaction products was injected, and products were separated using the same method as above.

T1 sequence (Q7BQ71 whole entry): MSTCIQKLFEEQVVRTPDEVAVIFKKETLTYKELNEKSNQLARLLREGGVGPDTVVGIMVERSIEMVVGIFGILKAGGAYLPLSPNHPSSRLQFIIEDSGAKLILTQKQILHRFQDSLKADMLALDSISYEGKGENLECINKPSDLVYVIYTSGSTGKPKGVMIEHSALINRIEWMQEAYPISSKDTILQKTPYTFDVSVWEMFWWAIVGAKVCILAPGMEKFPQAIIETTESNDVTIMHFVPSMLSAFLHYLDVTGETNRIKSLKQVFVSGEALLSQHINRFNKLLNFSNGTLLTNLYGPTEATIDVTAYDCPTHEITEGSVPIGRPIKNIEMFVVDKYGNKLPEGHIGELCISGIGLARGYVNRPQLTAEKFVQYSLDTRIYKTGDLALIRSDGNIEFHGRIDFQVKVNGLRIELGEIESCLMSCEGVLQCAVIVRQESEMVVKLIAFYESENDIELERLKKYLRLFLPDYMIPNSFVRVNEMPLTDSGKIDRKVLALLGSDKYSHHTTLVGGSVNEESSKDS
Sequence of ZmaN (as listed by the source, one chain of several): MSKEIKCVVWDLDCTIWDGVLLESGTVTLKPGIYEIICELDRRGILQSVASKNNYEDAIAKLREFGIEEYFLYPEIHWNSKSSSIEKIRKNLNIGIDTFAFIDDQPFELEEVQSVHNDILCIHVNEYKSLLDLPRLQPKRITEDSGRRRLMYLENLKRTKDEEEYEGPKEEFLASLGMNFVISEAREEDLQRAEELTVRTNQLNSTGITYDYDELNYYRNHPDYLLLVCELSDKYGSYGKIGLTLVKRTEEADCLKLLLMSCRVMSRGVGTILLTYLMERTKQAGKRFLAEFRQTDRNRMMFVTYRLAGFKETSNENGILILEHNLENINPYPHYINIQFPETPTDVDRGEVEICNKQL

`NCC(=O)O` [Gly] was tested, and the “amino acid substrate specificity of ZmaJ (activation)” value (“amino acid substrate specificity” below) (ZmaJ [1]) was “activated only L-Ser”.

In the case of `N[C@@H](CS)C(=O)O` [L-Cys], the “amino acid substrate specificity” value (ZmaJ [1]; 70 nM ZmaJ, 1 mM amino acid) is reported as “activated only L-Ser”.

In the case of `N[C@@H](CO)C(=O)O` [L-Ser, L-serine], the “amino acid substrate specificity” value (ZmaJ [1]; 70 nM ZmaJ, 1 mM amino acid) is reported as “activated only L-Ser”.

For `C[C@@H](O)[C@H](N)C(=O)O` [L-Thr], the “amino acid substrate specificity” value (ZmaJ [1]; 70 nM ZmaJ, 1 mM amino acid) was “activated only L-Ser”.

For L-2,3-diaminopropionate, the “amino acid substrate specificity” value (ZmaJ [1]; 70 nM ZmaJ, 1 mM amino acid) was “activated only L-Ser”.

ZmaJ (Bacillus cereus) was tested, and the Km (N[C@@H](CO)C(=O)O) was 1.8 ± 0.2 mM and the kcat (N[C@@H](CO)C(=O)O) was 42 ± 2 min⁻¹.

B1: holo-ZmaD: acyl carrier protein ZmaD (SEQ ID NO:2) phosphopantetheinylated in vitro by Sfp (protein, listed as Bacillus cereus)
chain: MDNHEKIRQYIKKNLIIFNAEETIVANDENIFEKGYVNSLFAMQMLNFIETEFDIVVDNDELDIINFSTINNMVDLINKKKNGNFTV
modifications: phosphopantetheinylated
For B1, the “rate of holo-ZmaD modification” value (ZmaN; with 3-PGPK) was 1.44 nmol/min, the “rate of holo-ZmaD modification” value (ZmaN; without 3-PGPK) was 0.08 nmol/min and the “aminoacylation by ZmaJ (seryl-ACP formation)” value (ZmaJ [2]) was “not able to aminoacylate”.
